In patent US9128097B2, “Method and kit for assessing viable cells” (ChemoMetec A/S, priority 2008, dated 2015):

Test system: Jurkat (JM) cells
Assay: Staining of proliferating Jurkat cells with labelling agent and propidium iodide, fluorescence microscopy
Type: cell-based
Conditions: 10 μL agent (100 μg pr. mL DMSO) added to 90 μL cells, only exception PI positive cells
Procedure: (§1) Materials and Methods. Jurkat (JM) cells were grown at 37° C. in a humidified air atmosphere with 5% CO2 in RPMI (Invitrogen, #61870) supplemented with 10% heat-inactivated fetal bovine serum (Invitrogen, #10108-165). 90 μL proliferating Jurkat cells (cell density 1.2×10^6, 99% viable determined using the NC-100 NucleoCounter system following the manufacturer's (ChemoMetec A/S) protocol) were added 10 μL NAM (N-(9-acridinyl)maleimide, Sigma, #01665, CAS no. 49759-20-8) dissolved in DMSO (100 μg NAM pr. mL DMSO) and mixed by pipetting. Cells were loaded into a NucleoCassette, containing the DNA stain propidium iodide (PI). The cells were investigated using an Olympus IX50 fluorescence microscope, and images were captured using a Lumenera CCD camera and in-house developed software. PI and NAM fluorescence were detected using, respectively, U-MWG2 (green long pass: 510-550 nm) and U-MNUA2 (UV band pass, 330-385 nm) filter cubes (Olympus).
as §1, with “1.0×10^6,” for “1.2×10^6,”, “(ChemoMetec)” for “(ChemoMetec A/S)”, “CPM (7-diethylamino-3-[4′-maleimidylphenyl]-4-methylcoumarin, Chemodex Ltd.,” for “NAM (N-(9-acridinyl)maleimide, Sigma, #01665,”, “76877-33-3)” for “49759-20-8)”, “CPM” for “NAM”
as §1, with “1.1×10^6, 98%” for “1.2×10^6, 99%”, “(ChemoMetec)” for “(ChemoMetec A/S)”, “PM (N-(1-Pyrenyl)maleimide, Sigma P7908” for “NAM (N-(9-acridinyl)maleimide, Sigma, #01665,”, “42189-56-0)” for “49759-20-8)”, “PM” for “NAM”, “Cells were loaded into a NucleoCassette, containing the DNA stain propidium iodide (PI).” left out
Materials and Methods. […] 90 μL proliferating Jurkat cells (cell density 1.1×10^6, 98% viable determined using the NC-100 NucleoCounter system following the manufacturer's (ChemoMetec) protocol) were added 10 μL CPI (7-diethylamino-3-((4′-(iodoacetyl)amino)phenyl)-4-methylcoumarin, Sigma 78264 CAS no. 76877-34-4) dissolved in DMSO (100 μg CPI pr. mL DMSO) and mixed by pipetting. […] The cells were investigated using an Olympus IX50 fluorescence microscope, and images were captured using a Lumenera CCD camera and in-house developed software. PI and CPI fluorescence were detected using, respectively, U-MWG2 (green long pass: 510-550 nm) and U-MNUA2 (UV band pass, 330-385 nm) filter cubes (Olympus). […]

**Q.** With `O=C1C=CC(=O)N1c1c2ccccc2nc2ccccc12` [NAM, N-(9-acridinyl)maleimide] as the compound, how does the “staining of cells (UV filter) versus PI positive cells” value read?
**A.** Its value is “nearly all cells in the proliferating Jurkat cell culture were stained by NAM”.
